# Measurements reported in US11999697B2, “Methods and compositions for inhibition of dihydroorotate dehydrogenase” (OHIO STATE INNOVATION FOUNDATION, priority 2018, dated 2024).
# Read-outs that look alike come from different tables or passages of the source.
# Experiments:
# [1] = tested on: NK cell function (MV4-11 targets, normal donor NK cells); test: Antibody dependent cellular cytotoxicity (ADCC) assay by 51Cr release; assay type: cell-based, human; conditions: 1 μM, 4 hours 51Cr release
# Procedure: Antibody Dependent Cellular Cytotoxicity (ADCC) Assay by ^51Cr Release: Assessment of NK-cell killing activity was performed using standard 4 hour ^51Cr release (CR) assay. Donor NK cells (effector cells) were isolated from the peripheral blood of normal donors (N=2). MV4-11 cells (target cells) were labeled with radioactive ^51Cr for 1 h at 37° C., washed, and plated in 96 well V-bottom plates at a density of 1×10^4 cells/well. Vehicle or 1 μM Cpd3 was added to either the NKs cells, the MV4-11 cells, or both prior to co-culturing. The ^51Cr labeled MV4-11 cells and NK cells were then co-cultured 25:1 or 12:1 effector to target (E:T) ratio in the presence of antibodies targeting the CD33 surface receptor (B133; B1836858), non-targeting isotype control (B147; B1836847), each at […], or no antibody control. Supernatants were collected after 4 h of co-culture and counted on a Perkin Elmer (Waltham, Mass.) Wizard γ-counter. The percentage of specific cell lysis was determined by: % lysis=100×(ER-SR)/(MR-SR). ER, SR, and MR represent experimental, spontaneous and maximum release. Data were normalized to the untreated control.
# Briefly, a chromium (Cr^51) release antibody dependent cellular toxicity assay was carried out with MV4-11 cells (targets) and normal donor NK cells (effectors; N=2). […] Cr^51 release was measured following 4 hours of incubation to determine relative toxicity.
# [2] = Pharmacokinetic study, oral dosing at different dose levels; assay type: in vivo, wild type B6 mice; conditions: for AUC(0-t) / Cmax / Tmax / half-life: B6, mouse, plasma, oral gavage; for AUC(0-t): po
# From the text: LC-MS/MS Assay Materials: Acetonitrile and methanol were LC-MS grade (Fisher Scientific (Fair Lawn, N.J., USA). Other chemicals were as follows: formic Acid (98%, v/v in water; Fisher Scientific, Fair Lawn, N.J., USA); ammonium acetate (Sigma Aldrich Inc.); water: DDH2O obtained from a Millipore water system; and brequinar was obtained from Sigma. (>99% purity). Solvent A: 0.1% formic acid in water. Solvent B: 0.1% Formic Acid in methanol and acetonitrile. Internal Standard (“IS”) precipitation solution was 150 ng/ml internal standards in acetonitrile: water (3:1, v/v).
# Sample preparation: To 10 μL plasma sample was added 100 μL of working IS solution and 20 μL MeOH. Samples were then vortexed for 30 seconds, followed by centrifugation (Eppendorf 5415 R centrifuge) at 10,000 rpm for 8 minutes at 4° C. Supernatant of each sample was transferred into an autosampler vial and sealed with rubber/Teflon crimp cap. Sample volume that was injected onto HPLC was 5 μL. The calibrations samples were prepared at a test compound concentration of 1000, 500, 250, 100, 50, 10, 5 ng/mL in mouse plasma. The quality control samples were as follows: QC1=750 ng/mL, OC2=75 ng/mL, QC3=25 ng/mL, LLOQ=5 ng/mL.
# HPLC Parameters: Accucore Vanquish C18 column (100×2.1 mm, dp=1.5 μm) used in a Vanquish UHPLC system, using a XBridge® BEH C18, 5-μm guard column. Mobile phase: gradient as provided below in Table 8 below. Column temperature: 40° C.±5° C.; Autosampler temperature: 10° C.±5° C. Flow rate: 0.4 ml/min. run time: 5.0 min.
# The mass spectrometer used was a TSQ Quantiva (Thermo Fisher Scientific).
# FIGS. 14A-14C show representative pharmacokinetic data obtained following administration of a representative disclosed compound, Cpd3, via oral dosing at different dose levels carried out using the methods described herein below in Examples. Briefly, wild type B6 mice were administered a single dose of Cpd3 by oral gavage at increasing concentrations (10, 25, 50 and 75 mg/kg). Blood plasma was sampled at 15, 30 and 60 minutes, and 2, 6 and 24 hours.
# OCI-AML3 = test: MTS cell proliferation assay, OCI-AML3; assay type: cell-based; conditions: Homo sapiens
# Procedure: Triplicate wells were set up for each condition.
# The assays were carried out in a blinded fashion.
# [3] = tested on: normal T-cells (CD4, CD8); test: CFSE proliferation assay; assay type: cell-based, human; conditions: 0.3 and 1 μM, CD3/CD28 stimulation, 72 hours
# Procedure: CFSE proliferation assays: Peripheral blood mononuclear cells from healthy adults were negatively selected to enrich for CD3, CD4, or CD8 T-cells. Cells were then stained with carboxyfluorescein succinimidyl ester (CSFE) and stimulated with plate bound anti-CD3 and soluble anti-CD28 antibodies. Proliferation was determined by CFSE dilution in the presence of vehicle or Cpd3 (0.3 and 1 μM doses) at 72 hours.
# FIGS. 7A-7I show representative cell proliferation data for normal T-cells following treatment with vehicle or a representative disclosed compound, Cpd3 in the presence or absence of CD3/CD28 stimulation using a CSFE proliferation flow cytometry assay as described herein below. Briefly, T-cells were isolated from normal healthy donors, labeled with CSFE, and then either left unstimulated or co-stimulated with CD3/CD28 in the presence of vehicle or Cpd3 (0.3 and 1 μM doses) for 72 hours. Proliferation was determined by CSFE dilution in CD4 and CD8 T-cells. Data shown in FIGS. 7A-7H were obtained from one representative normal donor.
structure (smiles),measurement,setting,value
"CCOc1ccc(-c2ccc(-c3cc(C(=O)O)c4cc(F)ccc4n3)cc2)cc1 [Cpd3, 2-(4′-ethoxy-[1,1′-biphenyl]-4-yl)-6-fluoroquinoline-4-carboxylic acid]",NK cell function,[1],does not impact NK cell function
same,AUC(0-t),"[2]; 10 mg/kg, 10 mg/kg, read-out: AUC0-6",47 ± 0.92 µg·h/mL
same,AUC(0-t),"[2]; 10 mg/kg, 10 mg/kg, read-out: AUC0-24",66.7 ± 6.17 µg·h/mL
same,AUC(0-t),"[2]; 25 mg/kg, 25 mg/kg, read-out: AUC0-6",101 ± 38 µg·h/mL
same,AUC(0-t),"[2]; 25 mg/kg, 25 mg/kg, read-out: AUC0-24",171 ± 34.2 µg·h/mL
same,AUC(0-t),"[2]; 50 mg/kg, 50 mg/kg, read-out: AUC0-6",333 ± 47.1 µg·h/mL
same,AUC(0-t),"[2]; 50 mg/kg, 50 mg/kg, read-out: AUC0-24",480 ± 62.1 µg·h/mL
same,AUC(0-t),"[2]; 75 mg/kg, 75 mg/kg, read-out: AUC0-6",531 ± 103 µg·h/mL
same,AUC(0-t),"[2]; 75 mg/kg, 75 mg/kg, read-out: AUC0-24",786 ± 39.3 µg·h/mL
same,Cmax,[2]; 10 mg/kg,18.6 ± 0.93 µg/mL
same,Tmax,[2]; 10 mg/kg,0.83 ± 0.29 h
same,half-life,[2]; 10 mg/kg,3.4 ± 0.3 h
same,Cmax,[2]; 25 mg/kg,35.9 ± 12.5 µg/mL
same,Tmax,[2]; 25 mg/kg,0.67 ± 0.29 h
same,half-life,[2]; 25 mg/kg,6.05 ± 1.97 h
same,Cmax,[2]; 50 mg/kg,93.2 ± 18 µg/mL
same,Tmax,[2]; 50 mg/kg,0.67 ± 0.29 h
same,half-life,[2]; 50 mg/kg,3.23 ± 0.77 h
same,Cmax,[2]; 75 mg/kg,115 ± 8.99 µg/mL
same,Tmax,[2]; 75 mg/kg,0.75 ± 0.35 h
same,half-life,[2]; 75 mg/kg,2.76 ± 0.3 h
same,relationship between dose and exposure,"[2]; oral gavage, 10, 25, 50 and 75 mg/kg",linear relationship between dose and exposure
same,IC50,"OCI-AML3; OCI-AML-3, 96 hour, Table 6, read-out: 96 hour IC50 (nM) in OCI-AML-3 cell line",321 nM
same,IC50,"OCI-AML3; OCI-AML-3, 96 hours, read-out: IC50 (μM) at 96 hours, OCI-AML3",610 nM
same,T-cell proliferation,[3],inhibits T-cell proliferation
